Assay results as given in patent US20240016822A1, “USE OF NK1 ANTAGONIST PRODRUG COMPOUND IN COMBINATION WITH 5-HT3 RECEPTOR ANTAGONIST” (Shanghai Shengdi Pharmaceutical Co., Ltd., priority 2020, published 2024).
Where two headings read alike, the source gives them in different places.

Legend:
[1] = Water solubility at different pH values; assay type: physicochemical
Protocol: • 1.1 Preparation of reagent • Reagent: NaH2PO4·2H2O • 1.2 Preparation method
The preparation according to 100 mL specification is as follows: • pH=3.0: phosphate buffer: 100 mL of 2 mmol/L NaH2PO4, adjusted to pH 3.0 with 0.1 M H3PO4. • pH=4.0: phosphate buffer: 100 mL of 2 mmol/L NaH2PO4, […] 100 mL of 2 mmol/L Na2HPO4, adjusted to pH 9.0 with 0.1 M NaOH. • 1.3 Test method
A proper amount of a test compound was weighed, and the solution was added in small batches. The mixture was stirred until the test compound was dissolved. The content of the compound in the solution was determined. The data are shown in Table 1. • 2.1 Stability test of compound
1 mg of the sample was weighed and added to a vial. The vial was placed in a vacuum bag, which was vacuumized and placed in a container filled with allochroic silica gel. The container was sealed. Two parts were prepared in parallel. Adequate parts were prepared according to sampling time points, and the two parts for each sampling time point were placed at 4° C. and room temperature, respectively. The solubility of the compound of formula (I) was determined at different pH values.

red blood cells (RBCs) = assay: Hemolytic effect on rabbit red blood cell suspension; assay type: cell-based; details: 2% rabbit RBC suspension; test sample in PBS (pH 7.4 or pH 5), 0.4-2 mg/mL; concentration up to 2 mg/mL
Protocol: 10 mL of red blood cells (RBCs) were randomly collected from the jugular vein or central auricular artery of a rabbit (EDTA whole blood), placed in a conical flask with glass beads, and shaken for 10 min to remove fibrinogen, resulting in defibrinated blood. 10 volumes of sodium chloride injection were added. The mixture was shaken uniformly and centrifuged at 1500 rpm for 10 min, and the supernatant was removed. […] The obtained red blood cells were prepared into 2% (v/v) suspension with sodium chloride injection for later use.
A test sample (the compound of formula (I)) was dissolved in PBS (pH 7.4 or pH 5), and the solution was filtered and prepared to the concentrations of 0.4 mg/mL, 0.8 mg/mL, 1.2 mg/mL, 1.6 mg/mL, and 2 mg/mL for later use.
A certain amount of the test sample solution was added to the above […] for testing in the supernatant.
The hemolytic effect of the compound provided by the present disclosure was determined by this method.
Rolapitant emulsion (formula: 4.4% polyethylene glycol 15-hydroxystearate, 1.1% medium chain triglyceride, and 0.66% soybean oil) was prepared by reference to the method described in CN102573475, and prepared with PBS to concentrations of 0.18 mg/mL, 0.09 mg/mL, 0.045 mg/mL, 0.023 mg/mL, 0.011 mg/mL, […] for later use.
The hemolytic effect was determined by the method described in Test Example 2.

[2] = Pharmacokinetic test in cynomolgus monkeys; assay type: in vivo
Protocol: With cynomolgus monkeys as test animals, the plasma concentrations of the compound of formula (I) at different time points after administration by injection were determined by LC/MS/MS. The pharmacokinetic performance of the compound was studied in cynomolgus monkeys and its pharmacokinetic characteristics were evaluated.
A certain amount of the test compound was weighed and prepared into a solution at pH 4.0 with 20 mmol/L sodium dihydrogen phosphate for later use. • 1.1 Administration Intravenous drip, injection time: about 30 min, administration dose: 3.54 mg/kg, administration concentration: […], and administration volume: 5 mL/kg. • 1.2 Operation
Blood was collected from femoral vein before administration and 5 min, 0.25 h, 0.5 h, 1 h, 2 h, 4 h, 6 h, 8 h, 10 h and 24 h after administration, about 0.6 mL for each sample. The blood samples were anticoagulated with sodium heparin and placed on ice immediately after collection. The blood samples were placed in marked centrifuge tubes after collection, and plasma was isolated by centrifugation (centrifugation conditions: 2200 g of centrifugal force, 10 min, 2-8° C.).
The contents of the compound of formula (I) and rolapitant in the plasma samples were determined by LC/MS/MS. • 1.3 Pharmacokinetic parameters

solubility ([1]; pH 7.4, thermodynamic from solid, pH 7.4, read-out: Saturated solubility): 19.8 mg/mL | solubility ([1]; pH 7.4, thermodynamic from solid, pH 7.4, read-out: Solubility): 26 mg/mL | solubility ([1]; phosphate buffer, pH 9, aqueous buffer, thermodynamic from solid, pH 9.0, read-out: Saturated solubility): 21.4 mg/mL | solubility ([1]; phosphate buffer, pH 9, aqueous buffer, thermodynamic from solid, pH 9.0, read-out: Solubility): 28 mg/mL | half-life ([2]; cynomolgus monkey, analyte compound of formula (I) in plasma, intravenous drip about 30 min, 3.54 mg/kg compound of formula (I)): 28.2 min | AUC(0-t) ([2]; cynomolgus monkey, analyte compound of formula (I) in plasma, intravenous drip about 30 min, 3.54 mg/kg compound of formula (I), read-out: AUC0-24 h): 1430 ng·h/mL | MRT inf ([2]; cynomolgus monkey, analyte compound of formula (I) in plasma, intravenous drip about 30 min, 3.54 mg/kg compound of formula (I), read-out: MRT 0-∞): 15.6 min
Structure (SMILES): C[C@@H](OC[C@@]1(c2ccccc2)CC[C@]2(CCC(=O)N2)CN1C(=O)OCOP(=O)(O)O)c1cc(C(F)(F)F)cc(C(F)(F)F)c1 [compound of formula (I)]
Hemolytic effect (red blood cells (RBCs)): no hemolytic effect | Conversion of prodrug into active metabolite rolapitant ([2]; cynomolgus monkeys, intravenous drip 3.54 mg/kg): quickly converted into the active metabolite rolapitant
